Data taken from PubChem BioAssay AID2060488 (Molecular Pharmacology Branch, DTP, NCI, 2025).
Values belong to the compound of their own block, whether it stands above or below them.

Tested on: 966289-007-R4-J1-PDC complex spheroid viability
Assay: Anticancer human tumor 966289-007-R4-J1-PDC patient-derived pancreatic adenocarcinoma cell line growth inhibition [GQUAD]
Conditions: for IC50: curve of first compound; for viability, T/C: stronger effect = lower value
From the text: DNA G-quadruplex Stabilizer Agents in Combinations in Complex Spheroids
A high-throughput screen of multi-cell type tumor spheroids was designed to identify active combinations of DNA G-quadruplex stabilizer agents and targeted small molecules. Complex spheroids include a stromal component modeled by human endothelial cells (HUVEC) and fibroblasts modeled by human mesenchymal stem cells (MSCs). The concentration ranges selected for each drug and investigational agent were based upon clinically achievable concentrations if the clinical Cmax of the agent was known.
Compounds. The drugs and investigational agents: pidnarulex (CX-5461; NSC782164), APTO-253 (NSC789042), BRACO-19 (NSC847499), peposertib (NSC802822), ceralasertib (NSC780249), elimusertib (NSC800525), camonsertib (NSC841442), AZD-1390 (NSC803789), olaparib (NSC753686), talazoparib (NSC767125), ART-558 (NSC835418), sotorasib (NSC818433), MRTX-1133 (NSC836407), SN-38 (NSC673596), topotecan (NSC609699), etoposide (NSC141540), doxorubicin (NSC123127), gemcitabine (NSC613327), 5-fluorouracil (NSC19893), paclitaxel (NSC125973), vemurafenib (NSC761431), panobinostat (NSC761190), R-306465 (JNJ-16241199; NSC773264), adavosertib (NSC754352), TP-3654 (NSC805149), carboplatin (NSC241240), KSQ-4279 (NSC840948), and staurosporine (NSC755774) were obtained from the National Cancer Institute (NCI) Developmental Therapeutics Program Chemical Repository (34). The FDA-approved anticancer drug set is available from the NCI Developmental Therapeutics Program. […] The stock solutions were prepared in dimethyl sulfoxide (DMSO, Sigma-Aldrich, St. Louis, MO, cat. D2650) at 800-fold the tested concentration and stored at -70 degrees C prior to their use. All drugs and investigational agents were tested over a range starting from a high concentration at or near the clinical Cmax and decreasing in half-log increments. If the clinical Cmax for an agent had not been determined, the highest concentration tested was 10 microM.
2.3 Cell Culture. All cells were maintained in an incubator at 37 degrees C and 5% CO2 with 95% humidity. The PDC lines were cultured according to standard operating procedures established by the NCI PDMR. All PDCs were thawed and cultured in Matrigel-coated flasks prepared with a working solution of 1X Ham's F-12 nutrient mix, without supplementation (Invitrogen, cat. 11765054), 100 U/mL penicillin-streptomycin (Invitrogen, cat. 15140122), and 2.5% Matrigel (Corning Inc., cat. 354248) for the first three passages. The 857933-349-R-J2-PDC line was cultured in 6C/Colon 1B media, which includes advanced DMEM/F-12 (Thermo Fisher Scientific, cat. 12634028), 10 mM HEPES (Thermo Fisher Scientific, cat. 15630080), 1X GlutaMAX supplement (Thermo Fisher Scientific, cat. 35050061), 0.1 mg/mL primocin (InvivoGen, cat. ant-pm-2), 10% defined fetal bovine serum, heat inactivated (HyClone Laboratories Inc., cat. SH30070.03HI), 50% L-WRN conditioned media (ATCC, cat. CRL-3276), 1.25 mM N-Acetyl-L-cysteine (Sigma-Aldrich, cat. A9165), 10 mM nicotinamide (Sigma-Aldrich, cat. N0636), 1X B-27 supplement (Thermo Fisher Scientific, cat. 17504044), 1X N-2 supplement (Thermo Fisher Scientific, cat. 17502048), 10 microM Y-27632 dihydrochloride (Tocris Bioscience, cat. 1254), and 50 ng/mL human EGF recombinant protein (Thermo Fisher Scientific, cat. PHG0311). The 485176-168-R4-J1-PDC line was cultured in Panc media, which includes all 6C/Colon 1B media components plus 100 ng/mL human FGF-10 (Thermo Fisher Scientific, cat. 100-26), 500 nM SB-431542 (Selleckchem, cat. S1067), and gastrin (Tocris, cat. 3006).
[…]

[1] = second compound 0.0316 µM, first compound 0.0316 µM
[2] = second compound 0.0316 µM, first compound 0.1 µM
[3] = second compound 0.0316 µM, first compound 0.316 µM
[4] = second compound 0.0316 µM, first compound 1 µM
[5] = second compound 0.0316 µM, first compound 3.16 µM
[6] = second compound 0.0316 µM, first compound 10 µM
[7] = second compound 0.1 µM, first compound 0.0316 µM
[8] = second compound 0.1 µM, first compound 0.1 µM
[9] = second compound 0.1 µM, first compound 0.316 µM
[10] = second compound 0.1 µM, first compound 1 µM
[11] = second compound 0.1 µM, first compound 3.16 µM
[12] = second compound 0.1 µM, first compound 10 µM
[13] = second compound 0.316 µM, first compound 0.0316 µM
[14] = second compound 0.316 µM, first compound 0.1 µM
[15] = second compound 0.316 µM, first compound 0.316 µM
[16] = second compound 0.316 µM, first compound 1 µM
[17] = second compound 0.316 µM, first compound 3.16 µM
[18] = second compound 0.316 µM, first compound 10 µM
[19] = second compound 1 µM, first compound 0.0316 µM
[20] = second compound 1 µM, first compound 0.1 µM
[21] = second compound 1 µM, first compound 0.316 µM
[22] = second compound 1 µM, first compound 1 µM
[23] = second compound 1 µM, first compound 3.16 µM
[24] = second compound 1 µM, first compound 10 µM
[25] = second compound 3.16 µM, first compound 0.0316 µM
[26] = second compound 3.16 µM, first compound 0.1 µM
[27] = second compound 3.16 µM, first compound 0.316 µM
[28] = second compound 3.16 µM, first compound 1 µM
[29] = second compound 3.16 µM, first compound 3.16 µM
[30] = second compound 3.16 µM, first compound 10 µM
[31] = second compound 10 µM, first compound 0.0316 µM
[32] = second compound 10 µM, first compound 0.1 µM
[33] = second compound 10 µM, first compound 0.316 µM
[34] = second compound 10 µM, first compound 1 µM
[35] = second compound 10 µM, first compound 3.16 µM
[36] = second compound 10 µM, first compound 10 µM
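Further: spheroids exposed to the agents for seven days before readout.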
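Wherever viability, T/C is given: percent viability relative to DMSO vehicle control wells taken as 100%.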

Structure (SMILES): CC1COCCN1c1cc(C2(O)CC3CCC(C2)O3)c2cnn(-c3ccn[nH]3)c2n1 (centres undefined) + CN(C)c1ccc(Nc2c3ccc(NC(=O)CCN4CCCC4)cc3nc3cc(NC(=O)CCN4CCCC4)ccc23)cc1
IC50 (second compound 0.0316 µM): 0.176 µM
IC50 (second compound 0.1 µM): 0.177 µM
IC50 (second compound 0.316 µM): 0.176 µM
IC50 (second compound 1 µM): 0.167 µM
IC50 (second compound 3.16 µM): 0.147 µM
IC50 (second compound 10 µM): 0.0741 µM
viability, T/C [1]: 116%
viability, T/C [2]: 75.1%
viability, T/C [3]: 24.1%
viability, T/C [4]: 8.6%
viability, T/C [5]: 5.79%
viability, T/C [6]: 5.95%
viability, T/C [7]: 112%
viability, T/C [8]: 81.4%
viability, T/C [9]: 18.1%
viability, T/C [10]: 8.59%
viability, T/C [11]: 5.93%
viability, T/C [12]: 5.58%
viability, T/C [13]: 109%
viability, T/C [14]: 75.8%
viability, T/C [15]: 23.1%
viability, T/C [16]: 9%
viability, T/C [17]: 5.73%
viability, T/C [18]: 5.87%
viability, T/C [19]: 103%
viability, T/C [20]: 74.3%
viability, T/C [21]: 19.6%
viability, T/C [22]: 8.84%
viability, T/C [23]: 6.93%
viability, T/C [24]: 4.89%
viability, T/C [25]: 104%
viability, T/C [26]: 65.6%
viability, T/C [27]: 19.1%
viability, T/C [28]: 8.61%
viability, T/C [29]: 6.25%
viability, T/C [30]: 4.79%
viability, T/C [31]: 86.3%
viability, T/C [32]: 37.3%
viability, T/C [33]: 12.7%
viability, T/C [34]: 6.7%
viability, T/C [35]: 6.68%
viability, T/C [36]: 3.1%

IC50 (second compound 0.0316 µM): 1.38 µM
IC50 (second compound 0.1 µM): < 0.0316 µM
IC50 (second compound 0.316 µM): < 0.0316 µM
IC50 (second compound 1 µM): < 0.0316 µM
IC50 (second compound 3.16 µM): < 0.0316 µM
IC50 (second compound 10 µM): < 0.0316 µM
Structure (SMILES): O=C(c1cc(Cc2n[nH]c(=O)c3ccccc23)ccc1F)N1CCN(C(=O)C2CC2)CC1 + Cc1cnc(CNC(=O)c2c(=O)c3ccc(N4CCCN(C)CC4)nc3n3c2sc2ccccc23)cn1
viability, T/C [1]: 113%
viability, T/C [2]: 106%
viability, T/C [3]: 98.9%
viability, T/C [4]: 58.9%
viability, T/C [5]: 23.3%
viability, T/C [6]: 4.08%
viability, T/C [7]: 33.8%
viability, T/C [8]: 26%
viability, T/C [9]: 22%
viability, T/C [10]: 17.1%
viability, T/C [11]: 8.17%
viability, T/C [12]: 4.33%
viability, T/C [13]: 13.5%
viability, T/C [14]: 11%
viability, T/C [15]: 9.09%
viability, T/C [16]: 7.84%
viability, T/C [17]: 3.87%
viability, T/C [18]: 2.13%
viability, T/C [19]: 5.15%
viability, T/C [20]: 5.03%
viability, T/C [21]: 4.87%
viability, T/C [22]: 4.62%
viability, T/C [23]: 3%
viability, T/C [24]: 1.77%
viability, T/C [25]: 3.25%
viability, T/C [26]: 5.08%
viability, T/C [27]: 3.5%
viability, T/C [28]: 2.42%
viability, T/C [29]: 0.47%
viability, T/C [30]: 0.13%
viability, T/C [31]: 0.11%
viability, T/C [32]: 0.34%
viability, T/C [33]: 0.18%
viability, T/C [34]: 0.14%
viability, T/C [35]: 0.16%
viability, T/C [36]: 0.58%
